{
  "source": "BindingDB's records for doi:10.1016/j.bmcl.2009.10.049",
  "about": "(Wyeth Research, 2009)",
  "target": "3-phosphoinositide-dependent protein kinase 1 (Homo sapiens) (UniProt O15530)",
  "experiment": "Inhibition of PDK1",
  "data": [
    {"smiles": "CN(C)Cc1ccc(-c2cnn3c(-c4cccc(NC(=O)c5cccc(C(F)(F)F)c5)c4)ccnc23)cc1", "note": "[N-[3-(3-{4-[(dimethylamino)methyl]phenyl}pyrazolo[1,5-a]pyrimidin-7-yl)phenyl]-3-(trifluoromethyl)benzamide]", "values": [
      {"measurement": "IC50", "result": "> 2000", "unit": "nM"}
    ]}
  ]
}
